In patent publication US11548899B2, “Fused 1,4-oxazepines and related analogs as BET bromodomain inhibitors” (THE REGENTS OF THE UNIVERSITY OF MICHIGAN, priority 2016, dated 2023):
Several values for one entry are separate records, joined by “and”; a condition that tells them apart may be missing. Identical values can stand only once. Like-named read-outs stand apart in the source and are kept apart here.

Key:
RS4-11 = assay: Cell growth inhibition, 4-day proliferation assay, RS4-11; format: cell-based; conditions: read-out: Cell Viability (IC50, μM) RS4-11
Procedure: (§1) The effect of representative Compounds of the Disclosure on cell viability was determined in a 4-day proliferation assay. Cells were maintained in the appropriate culture medium with 10% FBS at 37° C. and an atmosphere of 5% CO2. All the cell lines were used within three months of thawing fresh vials.
(§2) Cells were seeded in 96-well flat bottom (Corning COSTAR, Corning, N.Y., cat #3595) or white opaque cell culture plates (BD Falcon, cat #353296) at a density of 3,000-10,000 cells/well in 75 μl of culture medium. Compounds were serially diluted in the appropriate medium, and 75 μl of the diluted compounds were added to the appropriate wells of the cell plate. After the addition of compounds, the cells were incubated at 37° C. in an atmosphere of 5% CO2 for 4 days. Cell viability was determined using the CellTiter-Glo® Luminescent Cell Viability Assay Kit (Promega, Madison, Wis.) for leukemia cells and WST (2-(2-methoxy-4-nitrophenyl)-3-(4-nitrophenyl)-5-(2,4-disulfophenyl)-2H-tetrazolium, monosodium salt) Cell Counting-8 Kit (Dojindo Molecular Technologies, Inc., Rockville, Md.) for adhenrent cells according to the manufacturers' instructions. […]
(§3) For CellTiter-Glo assay (suspension cells), 100 μl of CellTiter-Glo® Reagent was added to each well, and then the plates were incubated at room temperature for 10-20 minutes. The luminescent signal was measured using a Tecan Infinite M1000 multimode microplate reader (Tecan, Morrisville, N.C.). The readings were normalized to the DMSO-treated cells and the IC50 was calculated by nonlinear regression (four parameters sigmoid fitted with variable slope, least squares fit, and no constraint) analysis using the GraphPad Prism 5 software. See US 2014/0256706.

MOLM-13 = assay: Cell growth inhibition, 4-day proliferation assay, MOLM-13; format: cell-based; conditions: read-out: Cell Viability (IC50, μM) MOLM-13
Procedure: as §1, §2, §3

recombinant BRD4 BD1 = target: T1, recombinant BRD4 BD1 (Homo sapiens, UniProt O60885); assay: Competitive fluorescence-polarization (FP) binding assay, BRD4 BD1
T1 construct: recombinant BRD4 BD1 and BRD4 BD2 proteins

recombinant BRD4 BD2 = target: T2, recombinant BRD4 BD2 (Homo sapiens, UniProt O60885); assay: Competitive fluorescence-polarization (FP) binding assay, BRD4 BD2; conditions: protein 6 nM, probe 1.5 nM
T2 construct: recombinant BRD4 BD1 and BRD4 BD2 proteins
Procedure: Fluorescence Polarization (FP) competitive binding studies were carried out using a FAM labeled fluorescent probe, see Cpd. […] Equilibrium dissociation constants (Kd) values of the fluorescent probe to BRD4 BD1 and BD2 proteins were determined from protein saturation experiments by monitoring the total fluorescence polarization of mixtures composed with the fluorescent probe at a fixed concentration and proteins with increasing concentrations up to full saturation. Serial dilutions of testing proteins were mixed with the fluorescent probe to a final volume of 200 μl in the assay buffer (100 mM phosphate buffer, pH=6.5, 0.01% Triton X-100 (Sigma, 282103) being added right before assays). Final fluorescent probe concentration was 1.5 nM for both proteins. Plates were incubated at room temperature for 30 minutes with gentle shaking to assure equilibrium. FP values in millipolarization units (mP) were measured using the Infinite M-1000 plate reader (Tecan U.S., Research Triangle Park, N.C.) in Microfluor 1 96-well, black, round-bottom plates (Thermo Scientific, Waltham, Mass.) at an excitation wavelength of 485 nm and an emission wavelength of 530 nm.
The IC50 and Ki values of compounds were determined in a competitive binding experiment. […] Mixtures of 10 μl of the tested compounds in assay buffer with 40% Ethylene Glycol and 190 μl of preincubated protein/probe complex solution in the assay buffer (100 mM potassium phosphate, pH 6.5, 0.01% Triton X-100) were added into assay plates which were incubated at room temperature for 30 minutes with gentle shaking. Final concentrations of proteins were 10 and 6 nM in assays for BRD4 BD1 and BD2, respectively. Final probe concentration is 1.5 nM in both assays. […] FP values were measured as described above. IC50 values were determined by nonlinear regression fitting of the competition curves.

[1] = Homo sapiens, RS4-11, 96 h, 4 days incubation, RS4-11 cells
[2] = Homo sapiens, MOLM-13, 96 h, 4 days incubation, MOLM-13 cells
[3] = FP competitive binding, protein 10 nM, probe 1.5 nM, read-out: IC50 (nM) BRD4 BD1
[4] = 4 days incubation, RS4-11 cells
[5] = 4 days incubation, MOLM-13 cells

| SMILES | IC50 (RS4-11; [1]) [µM] | IC50 (MOLM-13; [2]) [µM] | IC50 (recombinant BRD4 BD1; [3]) | IC50 (recombinant BRD4 BD2) | also measured |
| --- | --- | --- | --- | --- | --- |
| Cc1nnc2n1-c1sc(C#Cc3ccncc3)c(Cc3ccccc3)c1COC2 [Cpd. No. 87, 3-benzyl-9-methyl-2-(pyridin-4-ylethynyl)-4,6-dihydrothieno[2,3-e][1,2,4]triazolo[3,4-c][1,4]oxazepine] | 0.21 | 0.14 |  |  |  |
| Cc1nnc2n1-c1sc(C#Cc3cnn(C)c3)c(Cc3ccc(F)cc3)c1COC2 [Cpd. No. 111, 3-(4-fluorobenzyl)-9-methyl-2-((1-methyl-H-pyrazol-4-yl)ethynyl)-4H,6H-thieno[2,3-e][1,2,4]triazolo[3,4-c][1,4]oxazepine] | 0.18 |  | 5.4 nM and 10.5 nM and 12.9 nM | 112 nM and 142 nM and 127 nM | IC50 (RS4-11; [4]): 0.25 µM |
| Cc1nnc2n1-c1sc(C#Cc3cccnc3)c(Cc3ccccc3)c1COC2 [Cpd. No. 88, 3-benzyl-9-methyl-2-(pyridin-3-ylethynyl)-4,6-dihydrothieno[2,3-e][1,2,4]triazolo[3,4-c][1,4]oxazepine] |  |  |  |  | IC50 (RS4-11; Homo sapiens, RS4-11, 96 h): 0.25 µM; IC50 (MOLM-13; Homo sapiens, MOLM-13, 96 h): 0.12 µM |
| Cc1nnc2n1-c1sc(C#N)c(Cc3ccccc3)c1COC2 [Cpd. No. 110, 3-benzyl-9-methyl-4H,6H-thieno[2,3-e][1,2,4]triazolo[3,4-c][1,4]oxazepine-2-carbonitrile] | 3.5 | 3.8 | 634 nM | 2320 nM |  |
| Cc1sc2c(c1Cc1ccccc1)CN(CC1CC1)[C@@H](C)c1nnc(C)n1-2 [Cpd. No. 27, (S)-3-benzyl-5-(cyclopropylmethyl)-2,6,9-trimethyl-5,6-dihydro-4H-thieno[3,2-f][1,2,4]triazolo[4,3-a][1,4]diazepine] |  | > 5 | 611 nM | 2610 nM |  |
| Cc1nnc2n1-c1sc(C#CCCO)c(Cc3ccccc3)c1CO[C@H]2C [Cpd. No. 113, (S)-4-(3-benzyl-6,9-dimethyl-4H,6H-thieno[2,3-e][1,2,4]triazolo[3,4-c][1,4]oxazepin-2-yl)but-3-yn-1-ol] | 0.24 |  | 26.9 nM and 40 nM | 146 nM and 149 nM | IC50 (RS4-11; [4]): 0.45 µM |
| Cc1sc2c(c1Cc1ccccc1)CN(C(=O)OCc1ccccc1)[C@H](C)c1nnc(C)n1-2 [Cpd. No. 16, benzyl (R)-3-benzyl-2,6,9-trimethyl-4H-thieno[3,2-f][1,2,4]triazolo[4,3-a][1,4]diazepine-5(6H)-carboxylate] |  | 2.8 | 229 nM | 326 nM |  |
| Cc1sc2c(c1-c1ccnc3ccccc13)COCc1nnc(C)n1-2 [Cpd. No. 5, 2,9-dimethyl-3-(quinolin-4-yl)-4H,6H-thieno[2,3-e][1,2,4]triazolo[3,4-c][1,4]oxazepine] | > 5 |  | 1370 nM | 1070 nM |  |
| Cc1nnc2n1-c1cccc(C(C)c3ccccc3)c1COC2 (centres unmarked) [Cpd. No. 46, 1-methyl-7-(1-phenylethyl)-4,6-dihydrobenzo[e][1,2,4]triazolo[3,4-c][1,4]oxazepine] |  | 2.9 | 807 nM | 268 nM |  |
| Cc1sc2c(c1Cn1ccc3ccccc31)COCc1nnc(C)n1-2 [Cpd. No. 106, 3-((1H-indol-1-yl)methyl)-2,9-dimethyl-4H,6H-thieno[2,3-e][1,2,4]triazolo[3,4-c][1,4]oxazepine] | 1.5 | 2.6 | 283 nM |  |  |
| Cc1nnc2n1-c1sc(CCCCO)c(Cc3ccccc3)c1COC2 [Cpd. No. 99, 4-(3-benzyl-9-methyl-4H,6H-thieno[2,3-e][1,2,4]triazolo[3,4-c][1,4]oxazepin-2-yl)butan-1-ol] | 2.2 | 2.9 |  |  | IC50 (recombinant BRD4 BD1; IC50 (nM) BRD4 BD1): 367 nM |
| Cc1sc2c(c1Cc1ccccc1)COCc1nnc(C)n1-2 [Cpd. No. 4, 3-benzyl-2,9-dimethyl-4H,6H-thieno[2,3-e][1,2,4]triazolo[3,4-c][1,4]oxazepine] | 1.7 | 0.8 |  |  | IC50 (MOLM-13; [5]): 0.9 µM |
| Cc1nnc2n1-c1sc(C3CC3)c(Cc3ccccc3)c1COC2 [Cpd. No. 93, 3-benzyl-2-cyclopropyl-9-methyl-4H,6H-thieno[2,3-e][1,2,4]triazolo[3,4-c][1,4]oxazepine] | > 5 | > 5 |  |  |  |
| Cc1nnc2n1-c1cccc(C3CCCc4ccccc43)c1COC2 (centres unmarked) [Cpd. No. 50, 1-methyl-7-(1,2,3,4-tetrahydronaphthalen-1-yl)-4,6-dihydrobenzo[e][1,2,4]triazolo[3,4-c][1,4]oxazepine] |  | 2.7 | 425 nM and 585 nM | 146 nM and 247 nM |  |
| Cc1nnc2n1-c1sc(C#CCCO)c(Cc3ccccc3)c1COC2 [Cpd. No. 96, 4-(3-benzyl-9-methyl-4H,6H-thieno[2,3-e][1,2,4]triazolo[3,4-c][1,4]oxazepin-2-yl)but-3-yn-1-ol] | 0.4 | 0.3 |  |  | IC50 (RS4-11; [4]): 0.34 µM; IC50 (MOLM-13; [5]): 0.25 µM |
| Cc1nnc2n1-c1sc(-c3cnn(C)c3)c(Cc3ccccc3)c1COC2 [Cpd. No. 92, 3-benzyl-9-methyl-2-(1-methyl-H-pyrazol-4-yl)-4H,6H-thieno[2,3-e][1,2,4]triazolo[3,4-c][1,4]oxazepine] | 1.6 | 1.6 | 211 nM |  |  |
| Cc1sc2c(c1Cc1cccc(C#N)c1)COCc1nnc(C)n1-2 [Cpd. No. 101, 3-(3-cyanobenzyl)-2,9-dimethyl-4H,6H-thieno[2,3-e][1,2,4]triazolo[3,4-c][1,4]oxazepine] | 3.6 | > 5 | 832 nM |  |  |
| C=C(c1ccccc1)c1c(C)sc2c1COCc1nnc(C)n1-2 [Cpd. No. 24, 2,9-dimethyl-3-(1-phenylvinyl)-4H,6H-thieno[2,3-e][1,2,4]triazolo[3,4-c][1,4]oxazepine] |  | 3.4 | 491 nM | 492 nM |  |
| Cc1nnc2n1-c1ccc(C#CCCO)c(Cc3ccccc3)c1COC2 [Cpd. No. 84, 4-(7-benzyl-1-methyl-4,6-dihydrobenzo[e][1,2,4]triazolo[3,4-c][1,4]oxazepin-8-yl)but-3-yn-1-ol] | 1 | 0.7 |  |  |  |
| Cc1nnc2n1-c1cccc(C3=CCCc4ccccc43)c1COC2 [Cpd. No. 49, 7-(3,4-dihydronaphthalen-1-yl)-1-methyl-4,6-dihydrobenzo[e][1,2,4]triazolo[3,4-c][1,4]oxazepine] |  | > 5 | 2350 nM and 1820 nM | 271 nM and 175 nM |  |
| Cc1sc2c(c1C(C)c1ccccc1)COCc1nnc(C)n1-2 (centres unmarked) [Cpd. No. 28, 2,9-dimethyl-3-(1-phenylethyl)-4H,6H-thieno[2,3-e][1,2,4]triazolo[3,4-c][1,4]oxazepine] |  | 4.7 | 772 nM | 749 nM |  |
| Cc1sc2c(c1Cc1ccc(Cl)cc1)COCc1nnc(C)n1-2 [Cpd. No. 9, 3-(4-chlorobenzyl)-2,9-dimethyl-4H,6H-thieno[2,3-e][1,2,4]triazolo[3,4-c][1,4]oxazepine] |  | 1 | 88.4 nM | 271 nM |  |
| Cc1nnc2n1-c1sc(-c3cn[nH]c3)c(Cc3ccccc3)c1COC2 [Cpd. No. 91, 3-benzyl-9-methyl-2-(1H-pyrazol-4-yl)-4H,6H-thieno[2,3-e][1,2,4]triazolo[3,4-c][1,4]oxazepine] | 1.2 | 1.2 | 153 nM |  |  |
| Cc1nnc2n1-c1sc(C#Cc3cncn3C)c(Cc3ccccc3)c1COC2 [Cpd. No. 86, 3-benzyl-9-methyl-2-((1-methyl-H-imidazol-5-yl)ethynyl)-4,6-dihydrothieno[2,3-e][1,2,4]triazolo[3,4-c][1,4]oxazepine] | 0.2 | 0.14 |  |  |  |
| Cc1nnc2n1-c1cccc(C3(c4ccccc4)CC3)c1COC2 [Cpd. No. 48, 1-methyl-7-(1-phenylcyclopropyl)-4,6-dihydrobenzo[e][1,2,4]triazolo[3,4-c][1,4]oxazepine] |  | 1.4 | 454 nM and 696 nM | 71.6 nM and 137 nM |  |
| Cc1sc2c(c1Cc1ccccc1F)COCc1nnc(C)n1-2 [Cpd. No. 102, 3-(2-fluorobenzyl)-2,9-dimethyl-4H,6H-thieno[2,3-e][1,2,4]triazolo[3,4-c][1,4]oxazepine] | 2.6 | 3.9 | 222 nM |  |  |
| Cc1sc2c(c1Cc1cccc(F)c1)COCc1nnc(C)n1-2 [Cpd. No. 100, 3-(3-fluorobenzyl)-2,9-dimethyl-4H,6H-thieno[2,3-e][1,2,4]triazolo[3,4-c][1,4]oxazepine] | 2.3 | 2.4 | 208 nM |  |  |
